Assay results: US6756409B2, “Phenoxyphenyl alkanesulphonates” (priority 2001, dated 2004)

How the values were obtained:
[1] = Microsomal stability investigations; format: in vitro ADME; details: maximum possible bioavailability extrapolated from rat liver microsomes, 37° C., 15 minutes
Description: 4. Microsomal Stability Investigations
The metabolic stability of the compounds according to the invention can be measured in rat liver microsomes (in analogy to J. Pharmacol. Exp. Ther. 1997, 283, 46-58).
To determine the microsomal stability and extrapolate to the maximum possible bioavailability (Fmax) owing to the first-pass effect in the liver (phase 1 reactions), the substance is incubated in low concentration with microsomal protein, with addition of cofactors, at 37° C. for 15 minutes.
The incubation and the sampling take place on a modified automatic pipettor from Canberra Packard.

rat CB1 receptor = target: T1, rat CB1 receptor (Rattus norvegicus, UniProt P20272); assay: Rat CB1 luciferase reporter gene test; format: cell-based; details: rat CHOCB1 reporter cell line, forskolin-stimulated luciferase activity
T1 construct: expressed in transfected cells; host or cells: CHO (CHOluc9-derived reporter line, by analogy with the CB2 line)
T1 sequence (P20272 whole entry): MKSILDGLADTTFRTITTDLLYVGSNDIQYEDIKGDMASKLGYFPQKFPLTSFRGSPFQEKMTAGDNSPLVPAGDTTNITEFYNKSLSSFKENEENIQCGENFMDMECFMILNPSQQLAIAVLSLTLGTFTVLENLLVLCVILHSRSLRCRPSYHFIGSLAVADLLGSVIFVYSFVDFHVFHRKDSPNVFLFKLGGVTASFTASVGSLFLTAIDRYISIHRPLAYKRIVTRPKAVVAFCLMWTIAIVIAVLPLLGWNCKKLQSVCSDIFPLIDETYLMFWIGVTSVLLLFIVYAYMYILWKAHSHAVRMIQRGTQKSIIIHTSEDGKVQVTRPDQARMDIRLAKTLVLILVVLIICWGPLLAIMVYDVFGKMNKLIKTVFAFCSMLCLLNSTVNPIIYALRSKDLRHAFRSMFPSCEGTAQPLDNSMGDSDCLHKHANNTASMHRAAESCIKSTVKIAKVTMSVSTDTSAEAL
Description: 1. Rats CB1 Luciferase Reporter Gene Test
Stock cultures of a rat CHOCB1 reporter cell line were prepared by the method described in WO-A-98/37061, page 55 et seq.
The following test protocol was used for the substance screening: the stock cultures were cultivated in 50% of Dulbecco's modified Eagle medium/50% F-12 (DMEM/F12) with 10% FCS at 37° C. under 10% CO2 and split 1:10 after 2 to 3 days in each case. Test cultures were seeded with 5000 cells per well in 96-well plates and cultured at 37° C. for 70 hours. The cultures were then cautiously washed with phosphate-buffered saline and reconstituted with serum-free Ultra-CHO medium (Bio-Whittaker). The substances dissolved in DMSO were diluted 1× in medium and pipetted into the test cultures (maximum DMSO final concentration in test mixture: 0.5%). 20 minutes later, forskolin was added and the cultures were then incubated in an incubator at 37° C. for 3 hours. […] Immediately thereafter luciferase substrate solution (2.5 mM ATP, 0.5 mM luciferin, 0.1 mM coenzyme A, 10 mM tricine, 1.35 mM MgSO4, 15 mM DTT, pH 7.8) was added and briefly shaken, and the luciferase activity was measured using a Hamamatsu camera system. […]
The IC50 values were calculated using the GraphPadPrism program (Hill equation, specifically: one-site competition).

[2] = tested on: chronic mechanical hyperalgesia in axotomized rats; assay: Axotomy of sciatic branches in the rat (chronic pain model); format: in vivo; details: orally, acute administration, 60 minutes before the test
Description: 7. Axotomy of Sciatic Branches in the Rat (Chronic Pain Model)
Under pentobarbital anaesthesia, the trifurcation of a sciatic nerve is exposed, and the peroneal and tibial branches are axotomized after the nerves have been ligated proximal of the axotomy site. Control animals undergo a sham operation. After the operation, the axotomized animals develop chronic mechanical hyperalgesia. This hyperalgesia is tested, comparing with sham-operated animals, with the aid of a pressure transducer (electronic von Frey anesthesiometer, IITC Inc.—Life Science Instruments, Woodland Hills, Calif., USA).
The substance is administered by various administration routes (i.v., i.p., orally, i.t., i.c.v., transdermally) at various times before the pain testing.

[3] = Pharmacokinetics in the rat; format: in vivo; details: for AUCstand / Cmax,stand: standardized to 1 mg/kg; for half-life: terminal half-life
Description: 5. Pharmacokinetics in the Rat
The substance is infused through a Braunüle in a lateral tail vein directly into the blood stream over 15 minutes. A calibrated 20 ml syringe is used for accurate administration of the chosen dose and volume. A Braun Melsungen No. 152440/1 pump is used for the infusion.
The substance is administered as bolus by gavage.
Blood samples are collected from catheterized animals (jugular vein) in heparinized tubes. The blood is centrifuged and the plasma is prepared in a suitable manner for analysis (LC-MS-MS). The plasma is stored at <−15° C. until analysed.
AUCstand: the area, standardized to a dose of 1 mg/kg, under the plasma concentration/time curve;
Cmax,stand: the maximum plasma concentration after a single administration, standardized to a dose of 1 mg/kg;
tmax: the time at which the maximum plasma concentration is reached after a single dose;
t1/2: terminal half-life;
F: bioavailability; in this case the percentage, compared with i.v. administration, of the dose which is systemically available;
VSS: apparent volume of distribution at the steady state.

CB1 receptor = target: T2, CB1 receptor (Rattus norvegicus, UniProt P20272); assay: Rat hypothermia agonism test; format: in vivo; details: oral administration
T2 construct: from tissue; host or cells: whole animal (rat), in vivo
T2 sequence (P20272 whole entry): as above
Description: The in vivo agonistic effect on the CB1 receptor was examined in the rat hypothermia assay.
Five minutes after determining the basal body temperature via an oesophageal temperature probe, the test substance is administered (orally). A control group receives, likewise orally, only the solvent for the test substances (Cremophors EL 1-10%+distilled water). The body temperature is measured 120 and 240 minutes after oral administration. The size of the group for each dose is 5-7 animals (rats).
Rat Hypothermia Agonism Test

SMILES	Fmax [1] [%]	IC50 (rat CB1 receptor) [nM]	minimally effective dose reducing hyperalgesia [2] [mg/kg]	AUCstand ([3]; i.v. infusion, dose 0.3 mg/kg) [kg·h/L]	Cmax,stand ([3]; i.v. infusion, dose 0.3 mg/kg) [kg/L]	F ([3]; oral, dose 3 mg/kg, bioavailability compared with i.v. administration) [%]	AUCstand ([3]; oral, dose 3 mg/kg) [kg·h/L]	Cmax,stand ([3]; oral, dose 3 mg/kg) [kg/L]	Vd ([3]; plasma, iv, i.v. infusion, dose 0.3 mg/kg, apparent volume of distribution at steady state, read-out: VSS) [L/kg]	half-life ([3]; plasma, iv, i.v. infusion, dose 0.3 mg/kg) [h]	Tmax ([3]; plasma, oral, dose 3 mg/kg) [h]	half-life ([3]; plasma, oral, dose 3 mg/kg) [h]	ED−1° C. (effective dose for reducing the body temperature by 1° C.) (CB1 receptor) [mg/kg]
O=S(=O)(CCCC(F)(F)F)Oc1cccc(Oc2ccccc2OC(F)(F)F)c1 [Example 17]	40	0.81											
O=S(=O)(CCCC(F)(F)F)Oc1cccc(Oc2cccc(C(F)(F)F)c2Cl)c1 [Example 22]			1	0.307	0.5978	33	0.102	0.0198	4.12	1.6	2.29	2.36	10
Cc1c(Cl)cccc1Oc1cccc(OS(=O)(=O)CCCC(F)(F)F)c1 [Example 15]	4												
